These results are taken from BindingDB's records for doi:10.1016/j.bmc.2011.12.011 (University of Auckland, 2012).

Bounds are passed on as bounds.

Biological target in one assay: not listed separately
The assay is described as follows: Inhibition of recombinant perforin-mediated lysis of Jurkat cells assessed as [51Cr] release preincubated with perforin for 30 mins followed by incubation with [51Cr]-labeled Jurkat cells by gamma counting.
Regarding `O=C1NC(=S)NC1=Cc1ccc(-c2ccc3c(c2)COC3=O)s1`, the half-inhibitory concentration (IC50) turned out to be 0.78 µM. On the same count and under the same terms, next, `O=C1NC(=S)NC1=Cc1ccc(-c2ccc3c(c2)COC3=O)nc1`: 2 µM; `O=C1NC(=S)NC1=Cc1ccc(-c2ccc3c(c2)COC3=O)[nH]1`: 2.45 µM; `O=C1NC(=S)NC1=Cc1nc(-c2ccc3c(c2)COC3=O)cs1`: 1.41 µM.

For the compound `O=C1NC(=S)NC1=Cc1csc(-c2ccc3c(c2)COC3=O)n1`, the half-inhibitory concentration (IC50) stood at 0.34 µM.

As to `O=C1NC(=S)NC1=Cc1cc(-c2ccc3c(c2)COC3=O)ns1`, the IC50 came out at 1.44 µM. Same read-out and setting: next, `O=C1NC(=S)NC1=Cc1cc2cc(-c3ccc4c(c3)COC4=O)ccc2o1`: 0.51 µM. The same measure, in the same setting: next, `O=C1NC(=S)NC1=Cc1cc2cc(-c3ccc4c(c3)COC4=O)ccc2[nH]1`: 0.82 µM. Turning to `O=C1NC(=S)NC1=Cc1ccc2cc(-c3ccc4c(c3)COC4=O)ccc2n1`, the half-maximal inhibitory concentration (IC50) was found to be 0.47 µM. On the same count and under the same terms, in the case of `O=C1OCc2cc(-c3cccs3)ccc21` it was more than 20 µM; in that of `CC(=O)c1ccc(-c2ccc3c(c2)COC3=O)s1`, more than 20 µM.

For the compound `O=Cc1ccc(-c2ccc3c(c2)COC3=O)s1`, the IC50 was 6.31 µM. Same read-out and setting: next, `O=C(O)Cc1ccc(-c2ccc3c(c2)COC3=O)s1`: more than 20 µM; `COC(=O)Cc1ccc(-c2ccc3c(c2)COC3=O)s1`: more than 20 µM; `O=C1NC(=S)SC1=Cc1ccc(-c2ccc3c(c2)COC3=O)s1`: more than 10 µM. Still for that read-out and setting: in the case of `O=C1NC(=O)C(=Cc2ccc(-c3ccc4c(c3)COC4=O)s2)S1` it was 1.12 µM.

For the compound `O=C1NC(=O)C(=Cc2ccc(-c3ccc4c(c3)COC4=O)s2)C(=O)N1`, the concentration for half-maximal inhibition (IC50) is 0.8 µM. Still for that read-out and setting: in the case of `O=C1NC(=S)NC(=O)C1=Cc1ccc(-c2ccc3c(c2)COC3=O)s1` it was 0.4 µM; in that of `CN1C(=O)C(=Cc2ccc(-c3ccc4c(c3)COC4=O)s2)C(=O)N(C)C1=O`, 3.96 µM. Same read-out and setting: in the case of `O=C1OCc2cc(-c3ccc(-c4cnco4)s3)ccc21` it was 3.18 µM; in that of `O=C1NCCCC1=Cc1ccc(-c2ccc3c(c2)COC3=O)s1`, 15.2 µM.

The next assay has as its target T1, Perforin-1 (Homo sapiens, UniProt P14222).
T1 sequence (P14222 whole entry): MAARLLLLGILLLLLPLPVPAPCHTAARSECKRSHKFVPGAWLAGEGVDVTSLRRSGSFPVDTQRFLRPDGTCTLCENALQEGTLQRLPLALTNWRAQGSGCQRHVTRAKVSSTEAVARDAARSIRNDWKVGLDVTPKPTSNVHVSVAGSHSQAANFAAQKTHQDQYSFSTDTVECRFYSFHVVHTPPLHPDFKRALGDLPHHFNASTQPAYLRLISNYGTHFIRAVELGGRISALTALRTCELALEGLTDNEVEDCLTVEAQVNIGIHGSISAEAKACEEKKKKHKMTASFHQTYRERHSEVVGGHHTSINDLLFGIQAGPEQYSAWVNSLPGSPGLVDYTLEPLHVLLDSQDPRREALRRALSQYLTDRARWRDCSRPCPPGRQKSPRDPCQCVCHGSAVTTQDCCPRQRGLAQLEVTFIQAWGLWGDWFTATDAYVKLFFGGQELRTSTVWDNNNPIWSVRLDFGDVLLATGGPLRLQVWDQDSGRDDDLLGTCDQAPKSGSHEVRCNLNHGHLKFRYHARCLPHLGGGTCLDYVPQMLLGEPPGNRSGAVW
The assay is described as follows: Inhibition of recombinant perforin-mediated lysis of Jurkat cells assessed as [51Cr] release preincubated with perforin for 30 mins followed by incubation with [51Cr]-labeled Jurkat cells by gamma counting.
Regarding `O=C(NCC=Cc1[nH]c(=S)[nH]c1O)c1ccc2c(c1)COC2=O`, the IC50 is more than 20 µM.
